# Results taken from patent US20130072533A1, “COMPOUNDS WITH BOTH ANALGESIC AND ANTI-HYPERALGESIC EFFICACY” (priority 2010, published 2013).
# Where a name gives a salt, the structure may show the parent alone.
# Columns and labels:
# [1] = tested on: hyperalgesia induced in the rat by loose ligation of the sciatic nerve; assay: Paw pressure test, rat mononeuropathy (loose ligation of the sciatic nerve); assay type: in vivo
# Protocol: In particular, a racemic mixture of the compounds of formula (I) in the form of sodium salt, in which the stereogenic centre deriving from camosine is in the L configuration, was subjected to in vivo pharmacological tests which have enabled their surprising analgesic effects to be discovered.
# The observed effect is greater, albeit slightly, than that obtained by tramadol 100 mg kg^−1 per os and pregabalin 200 mg kg^−1 per os, in the same experimental model.
# [2] = tested on: oxaliplatin induced hyperalgesia in the rat; assay: Paw pressure test, oxaliplatin-induced hyperalgesia; assay type: in vivo; conditions: oxaliplatin rats
# [3] = tested on: osteoarthritis induced pain (MIA) in the rat; assay: Paw pressure test, osteoarthritis induced pain (intra-articular monosodium iodoacetate); assay type: in vivo; conditions: for PAW PRESSURE, AFTER TREATMENT (15 min) / PAW PRESSURE, AFTER TREATMENT 30 min / PAW PRESSURE, Pre-test: MIA rats
# Protocol: At the same doses of 10 and 30 mg kg^−1 per os, the racemic mixture under study was also found to be effective in reversing the pain threshold reduction induced by the intra-articular Injection of monoiodide acetate at a dose of 2 mg in a 25 μl volume (osteoarthritis model). In this case the effect is statistically significant up to 45 minutes after administration at the lower dose and up to 60 minutes at the three-fold dose.
# [4] = tested on: acetic acid induced writhes in mice; assay: Abdominal writhing test (acetic acid 0.6%); assay type: in vivo, mouse
# Protocol: The 10 mg kg^−1 per os dose was also found to be effective.
# [5] = tested on: motor coordination of the mouse; assay: Rotarod test; assay type: in vivo
# Excerpt: (§1) In particular, in the case of the rotarod, the number of falls from the rotating rod progressively decreases with repeated falls. This confirms that the observed anti-hyperalgesic effects are not due to a change in the animal's behaviour.
# [6] = tested on: spontaneous motility and exploratory activity of the mouse; assay: Hole-board test; assay type: in vivo
# Excerpt: as §1
# [7] = tested on: pain threshold of the mouse; assay: Hot plate test (acute thermal stimulus); assay type: in vivo; conditions: for HOT PLATE TEST, 15 min / HOT PLATE TEST, 30 min / HOT PLATE TEST, 45 min / HOT PLATE TEST, 60 min / HOT PLATE TEST, Pre-test: mice
# [8] = 30 mg kg^−1 per os, 30 min before the test
compound,measurement,setting,value
"CC(C)C[C@H](CN)CC(=O)O [PREGABALIN, pregabalin, reference compound]","PAW PRESSURE, AFTER TREATMENT (15 min)","[1]; 200 mg/kg per os, left paw",70.4 ± 3.5 g
same,"PAW PRESSURE, BEFORE TREATMENT","[1]; 200 mg/kg per os, left paw",57.3 ± 3.5 g
same,"PAW PRESSURE, AFTER TREATMENT (15 min)","[1]; 200 mg/kg per os, right paw",58.2 ± 3.1 g
same,"PAW PRESSURE, BEFORE TREATMENT","[1]; 200 mg/kg per os, right paw",26.3 ± 3.0 g
O=C(CCCCC1CCSS1)NCCC(=O)NC(Cc1cnc[nH]1)C(=O)O (racemic) (as salt: sodium) [Compound 2],melting point,,> 213 °C (dec.)
O=C(CCCCC1CCSS1)NCCC(=O)NC(Cc1cnc[nH]1)C(=O)O (racemic) [Compound 2],"PAW PRESSURE TEST, AFTER TREATMENT 15 min",[2]; 10 mg/kg per os,34.6 ± 3.1^ g
same,"PAW PRESSURE TEST, AFTER TREATMENT 30 min",[2]; 10 mg/kg per os,36.7 ± 3.5^ g
same,"PAW PRESSURE TEST, AFTER TREATMENT 45 min",[2]; 10 mg/kg per os,31.9 ± 3.5 g
same,"PAW PRESSURE TEST, AFTER TREATMENT 60 min",[2]; 10 mg/kg per os,26.9 ± 2.8 g
same,"PAW PRESSURE TEST, Pre-test",[2]; 10 mg/kg per os,23.8 ± 3.6 g
same,"PAW PRESSURE TEST, AFTER TREATMENT 15 min",[2]; 30 mg/kg per os,43.6 ± 3.9 g
same,"PAW PRESSURE TEST, AFTER TREATMENT 30 min",[2]; 30 mg/kg per os,48.9 ± 3.6 g
same,"PAW PRESSURE TEST, AFTER TREATMENT 45 min",[2]; 30 mg/kg per os,41.6 ± 3.6 g
same,"PAW PRESSURE TEST, AFTER TREATMENT 60 min",[2]; 30 mg/kg per os,31.7 ± 3.3 g
same,"PAW PRESSURE TEST, Pre-test",[2]; 30 mg/kg per os,22.9 ± 3.5 g
same,"PAW PRESSURE, AFTER TREATMENT (15 min)",[3]; 10 mg/kg p.o.,49.3 ± 2.5 g
same,"PAW PRESSURE, AFTER TREATMENT 30 min",[3]; 10 mg/kg p.o.,45.3 ± 3.9 g
same,"PAW PRESSURE, Pre-test",[3]; 10 mg/kg p.o.,24.5 ± 2.1 g
same,"PAW PRESSURE, AFTER TREATMENT (15 min)",[3]; 30 mg/kg p.o.,59.1 ± 3.3 g
same,"PAW PRESSURE, AFTER TREATMENT 30 min",[3]; 30 mg/kg p.o.,54.7 ± 3.6 g
same,"PAW PRESSURE, Pre-test",[3]; 30 mg/kg p.o.,24.4 ± 2.5 g
same,time after administration up to which the effect is statistically significant,[3]; lower dose (10 mg kg^−1 per os),up to 45 minutes
same,time after administration up to which the effect is statistically significant,[3]; three-fold dose (30 mg kg^−1 per os),up to 60 minutes
same,onset of the effect after administration,[1]; 10 mg/kg per os,15 min
same,time up to which the effect remained unchanged,[1]; 10 mg/kg per os,up to 45 minutes
same,"PAW PRESSURE, AFTER TREATMENT (15 min)","[1]; 10 mg/kg per os, left paw",69.5 ± 4.4 g
same,"PAW PRESSURE, BEFORE TREATMENT","[1]; 10 mg/kg per os, left paw",61.9 ± 3.4 g
same,reversal of hyperalgesia,"[1]; 10 mg/kg per os, ligation 14 days earlier","able to reverse, in a statistically significant manner"
same,"PAW PRESSURE, AFTER TREATMENT (15 min)","[1]; 10 mg/kg per os, right paw",48.3 ± 3.5 g
same,"PAW PRESSURE, BEFORE TREATMENT","[1]; 10 mg/kg per os, right paw",25.2 ± 3.3 g
same,"PAW PRESSURE, AFTER TREATMENT (15 min)","[1]; 30 mg/kg per os, left paw",81.6 ± 3.1 g
same,"PAW PRESSURE, BEFORE TREATMENT","[1]; 30 mg/kg per os, left paw",59.2 ± 3.8 g
same,"PAW PRESSURE, AFTER TREATMENT (15 min)","[1]; 30 mg/kg per os, right paw",66.3 ± 3.3 g
same,"PAW PRESSURE, BEFORE TREATMENT","[1]; 30 mg/kg per os, right paw",24.8 ± 3.2 g
same,no. of writhes,"[4]; 1 mg kg^−1 per os, 30 min before the test",28.5 ± 2.8
same,no. of writhes,"[4]; 10 mg kg^−1 per os, 30 min before the test",21.8 ± 3.1
same,no. of writhes,[4]; 30 mg kg^−1 per os with naloxone 1 mg kg^−1 i.p. 15 min before,13.6 ± 3.0
same,no. of writhes,[4]; [8],12.7 ± 2.6
same,antagonism of the analgesia by naloxone,"[4]; 30 mg kg^−1 per os, naloxone 1 mg kg^−1 i.p.",not antagonized by the opioid antagonist naloxone
same,change of behavioural parameters: motor coordination (rotarod),[5]; 30 mg kg^−1 per os,does not alter the behavioural parameters
same,"FALLS IN 30 SEC, 15 min","[5]; 30 mg/kg per os, mice, 15 min",3.9 ± 0.3
same,"FALLS IN 30 SEC, 30 min","[5]; 30 mg/kg per os, mice, 30 min",1.3 ± 0.3
same,"FALLS IN 30 SEC, 45 min","[5]; 30 mg/kg per os, mice, 45 min",0.8 ± 0.2
same,"FALLS IN 30 SEC, Pre-test","[5]; 30 mg/kg per os, mice, pre-test",5.2 ± 0.3
same,change of behavioural parameters: spontaneous motility and exploratory activity (hole-board),[6]; 30 mg kg^−1 per os,does not alter the behavioural parameters
same,No. of inspections,"[6]; 30 mg/kg per os, mice",37.8 ± 7.5
same,No. of movements,"[6]; 30 mg/kg per os, mice",30.3 ± 7.7
same,"HOT PLATE TEST, 15 min",[7]; 1 mg/kg per os,18.7 ± 2.7
same,"HOT PLATE TEST, 30 min",[7]; 1 mg/kg per os,25.1 ± 2.7
same,"HOT PLATE TEST, 45 min",[7]; 1 mg/kg per os,14.0 ± 2.0
same,"HOT PLATE TEST, 60 min",[7]; 1 mg/kg per os,15.7 ± 2.6
same,"HOT PLATE TEST, Pre-test",[7]; 1 mg/kg per os,15.7 ± 0.8
same,"HOT PLATE TEST, 15 min",[7]; 10 mg/kg per os,25.9 ± 2.8
same,"HOT PLATE TEST, 30 min",[7]; 10 mg/kg per os,22.3 ± 2.6
same,"HOT PLATE TEST, 45 min",[7]; 10 mg/kg per os,19.3 ± 1.9
same,"HOT PLATE TEST, 60 min",[7]; 10 mg/kg per os,17.4 ± 0.8
same,"HOT PLATE TEST, Pre-test",[7]; 10 mg/kg per os,15.3 ± 0.9
same,"HOT PLATE TEST, 15 min",[7]; 30 mg/kg per os,29.7 ± 2.8
same,"HOT PLATE TEST, 30 min",[7]; 30 mg/kg per os,26.0 ± 2.7
same,"HOT PLATE TEST, 45 min",[7]; 30 mg/kg per os,20.3 ± 2.9
same,"HOT PLATE TEST, 60 min",[7]; 30 mg/kg per os,18.7 ± 2.1
same,"HOT PLATE TEST, Pre-test",[7]; 30 mg/kg per os,15.7 ± 1.3
same,rise of the pain threshold,[7]; dose range between 1 and 30 mg kg^−1 per os,able to raise the pain threshold in a dose-dependent manner
"CC(C)Cc1ccc(C(C)C(=O)O)cc1 (stereo not drawn) [IBUPROFEN, ibuprofen, reference compound]",no. of writhes,[4]; [8],20.3 ± 2.2
same,no. of writhes,"[4]; 100 mg kg^−1 per os, 30 min before the test",13.5 ± 2.0
"COc1cccc(C2(O)CCCCC2CN(C)C)c1 (stereo not drawn) [TRAMADOL, tramadol, reference compound]","PAW PRESSURE, AFTER TREATMENT (15 min)","[1]; 100 mg/kg per os, left paw",72.3 ± 3.0^ g
same,"PAW PRESSURE, BEFORE TREATMENT","[1]; 100 mg/kg per os, left paw",58.3 ± 3.1 g
same,"PAW PRESSURE, AFTER TREATMENT (15 min)","[1]; 100 mg/kg per os, right paw",55.8 ± 2.5 g
same,"PAW PRESSURE, BEFORE TREATMENT","[1]; 100 mg/kg per os, right paw",25.7 ± 2.2 g
